Results taken from patent publication US9694016B2 (Novartis AG, priority 2013, dated 2017).
Like-named read-outs stand apart in the source and are kept apart here.

Target: b-Raf (V600E) (Homo sapiens (Human), UniProt P15056, V600E)
Conditions: read-out: b-Raf IC-50, AlphaScreen
[1] = 60 min pre-incubation, reaction 3 hours at room temperature
[2] = 60 min pre-incubation, 3 hours reaction

Chain of b-Raf (V600E) (P15056 whole entry V600E): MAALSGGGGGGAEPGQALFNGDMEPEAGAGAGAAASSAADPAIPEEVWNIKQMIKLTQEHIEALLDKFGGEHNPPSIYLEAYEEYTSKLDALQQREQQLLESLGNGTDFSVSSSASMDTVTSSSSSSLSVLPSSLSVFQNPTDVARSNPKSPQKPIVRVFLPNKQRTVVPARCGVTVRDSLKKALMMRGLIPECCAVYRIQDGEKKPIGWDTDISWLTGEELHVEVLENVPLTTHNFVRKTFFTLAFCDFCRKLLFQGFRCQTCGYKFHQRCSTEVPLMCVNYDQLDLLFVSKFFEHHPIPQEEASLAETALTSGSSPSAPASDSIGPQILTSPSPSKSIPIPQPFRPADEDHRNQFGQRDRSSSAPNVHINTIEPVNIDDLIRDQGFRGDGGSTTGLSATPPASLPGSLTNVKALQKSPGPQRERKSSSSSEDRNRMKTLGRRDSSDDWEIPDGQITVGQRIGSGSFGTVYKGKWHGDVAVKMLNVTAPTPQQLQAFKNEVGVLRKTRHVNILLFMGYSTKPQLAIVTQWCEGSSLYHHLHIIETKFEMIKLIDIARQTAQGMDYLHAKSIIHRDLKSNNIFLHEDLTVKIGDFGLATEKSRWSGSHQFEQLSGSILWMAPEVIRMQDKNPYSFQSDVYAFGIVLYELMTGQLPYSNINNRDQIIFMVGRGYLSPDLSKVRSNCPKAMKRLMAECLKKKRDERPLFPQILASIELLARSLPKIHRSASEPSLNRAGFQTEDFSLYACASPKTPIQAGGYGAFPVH

Row | IC50 [1] | IC50 [2] | Compound | other results
1 | 7.73 nM |  | Cc1ncc(NC(=O)c2ccnc(C(F)(F)F)c2)cc1-c1cc(N2CCOCC2)c(S(C)(=O)=O)nn1 [Example 921, N-(6-methyl-5-(6-(methylsulfonyl)-5-morpholinopyridazin-3-yl)pyridin-3-yl)-2-(trifluoromethyl)isonicotinamide] | 
2 |  | 2.9 nM | Cc1ncc(NC(=O)c2ccnc(C(C)(C)F)c2)cc1-c1cc(N2CCOCC2)c(OC2CCOCC2)nn1 [Example 630, 2-(2-fluoropropan-2-yl)-N-(6-methyl-5-(5-morpholino-6-((tetrahydro-2H-pyran-4-yl)oxy)pyridazin-3-yl)pyridin-3-yl)isonicotinamide] | 
3 |  |  | Cc1ncc(NC(=O)c2ccnc(C(C)(C)F)c2)cc1-c1cnc(OC2CCOCC2)c(N2C3CCC2COC3)c1 [Example 279, N-(5′-(3-oxa-8-azabicyclo[3.2.1]octan-8-yl)-2-methyl-6′-((tetrahydro-2H-pyran-4-yl)oxy)-[3,3′-bipyridin]-5-yl)-2-(2-fluoropropan-2-yl)isonicotinamide] | IC50 (Table 2, 3 hours reaction): 3200 nM
4 | 18 nM |  | Cc1ncc(NC(=O)c2cc(C(C)(C)O)ccn2)cc1-c1cnc(OC2CC3(COC3)C2)c(N2CCOCC2)c1 [Example 969, N-(6′-(2-oxaspiro[3.3]heptan-6-yloxy)-2-methyl-5′-morpholino-[3,3′-bipyridin]-5-yl)-4-(2-hydroxypropan-2-yl)picolinamide] | 
5 |  | 1.4 nM | CCc1cc(C(=O)Nc2ccc(C)c(-c3cc(N4CCOCC4)c(=O)n(C)n3)c2)ccn1 [Example 642, 2-ethyl-N-(4-methyl-3-(1-methyl-5-morpholino-6-oxo-1,6-dihydropyridazin-3-yl)phenyl)isonicotinamide] | 
6 | 80 nM |  | Cc1cc(=O)c(C(=O)Nc2cccc(C(F)(F)F)c2)cn1-c1ccnc(N2CCOCC2)c1 [Example 1175, 6-methyl-2′-morpholino-4-oxo-N-(3-(trifluoromethyl)phenyl)-4H-[1,4′-bipyridine]-3-carboxamide] | 
7 |  | 17.7 nM | CCNc1nc(-c2cc(NC(=O)c3ccnc(C4COC4)c3)cnc2C)cc(N2CCOCC2)n1 [Example 729, N-(5-(2-(ethylamino)-6-morpholinopyrimidin-4-yl)-6-methylpyridin-3-yl)-2-(oxetan-3-yl)isonicotinamide] | 
8 |  |  | Cc1ccc(NC(=O)c2cncc(N(C)C)c2)cc1-c1cc(N2CCOCC2)nc(N2CCOCC2)n1 [Example 18, 5-(dimethylamino)-N-(3-(2,6-dimorpholinopyrimidin-4-yl)-4-methylphenyl)nicotinamide] | IC50 (Table 2, 3 hours reaction): 0.5 nM
9 | 9.79 nM |  | Cc1ccc(NC(=O)c2cnnc(C(F)(F)F)c2)cc1-c1cc(NCCO)nc(N2CCOCC2)c1F [Example 1013, N-(3-(3-fluoro-6-((2-hydroxyethyl)amino)-2-morpholinopyridin-4-yl)-4-methylphenyl)-6-(trifluoromethyl)pyridazine-4-carboxamide] | 
10 |  | 0.8 nM | COCCOc1nnc(-c2cc(NC(=O)c3ccnc(C(C)(C)F)c3)ccc2C)cc1N1CCOCC1 [Example 600, 2-(2-fluoropropan-2-yl)-N-(3-(6-(2-methoxyethoxy)-5-morpholinopyridazin-3-yl)-4-methylphenyl)isonicotinamide] | 
11 |  | 16.8 nM | Cc1ccc(NC(=O)c2cccc(C(C)(C)S(C)(=O)=O)c2)cc1-c1cc(N2CCOCC2)n(C)c(=O)c1 [Example 494, N-(4-methyl-3-(1-methyl-6-morpholino-2-oxo-1,2-dihydropyridin-4-yl)phenyl)-3-(2-(methylsulfonyl)propan-2-yl)benzamide] | 
12 |  | 15.8 nM | Cc1ccc(NC(=O)c2ccnc(C(C)(C)C#N)c2)cc1-c1cc(N2CCOC[C@H]2C)c(=O)n(C)n1 [Example 672, (R)-2-(2-cyanopropan-2-yl)-N-(4-methyl-3-(1-methyl-5-(3-methylmorpholino)-6-oxo-1,6-dihydropyridazin-3-yl)phenyl)isonicotinamide] | 
13 | 1.36 nM |  | Cc1ccc(NC(=O)c2cncc(C(F)(F)F)c2)cc1-c1cnc(OCCO)c(N2CCOCC2)c1 [Example 1001, N-(3-(6-(2-hydroxyethoxy)-5-morpholinopyridin-3-yl)-4-methylphenyl)-5-(trifluoromethyl)nicotinamide] | 
14 | 3.01 nM |  | Cc1ncc(NC(=O)c2ccnc(C3CC3)c2)cc1-c1cc(C2COCCO2)nc(N2CCOCC2)c1 (centres unmarked) [Example 1169, N-(2′-(1,4-dioxan-2-yl)-2-methyl-6′-morpholino-[3,4′-bipyridin]-5-yl)-2-cyclopropylisonicotinamide] | 
15 |  |  | Cc1nc(C(=O)Nc2cnc(C)c(-c3cc(N4CCOCC4)c(=O)n(C)c3)c2)c(C)o1 [Example 383, N-(1′,2-dimethyl-5′-morpholino-6′-oxo-1′,6′-dihydro-[3,3′-bipyridin]-5-yl)-2,5-dimethyloxazole-4-carboxamide] | IC50 (Table 2, 3 hours reaction): 2800 nM
16 | 20.7 nM |  | CCn1cc(C(=O)Nc2cnc(C)c(-c3cc(N4CCOCC4)nc(N4CC(O)C4)c3)c2)cc(C(F)(F)F)c1=O [Example 1086, 1-ethyl-N-(2′-(3-hydroxyazetidin-1-yl)-2-methyl-6′-morpholino-[3,4′-bipyridin]-5-yl)-6-oxo-5-(trifluoromethyl)-1,6-dihydropyridine-3-carboxamide] | 
17 |  | 5 nM | COc1ncc(-c2cc(NC(=O)c3ccnc(S(C)(=O)=O)c3)ccc2C)nc1N1CCOCC1 [Example 546, N-(3-(5-methoxy-6-morpholinopyrazin-2-yl)-4-methylphenyl)-2-(methylsulfonyl)isonicotinamide] | 
18 | 2.24 nM |  | Cc1ccc(NC(=O)c2ccnc(C(F)(F)F)c2)cc1-c1cc(N2CCOCC2)nc(N2CCC(O)C2)c1 (centres unmarked) [Example 1130, N-(3-(2-(3-hydroxypyrrolidin-1-yl)-6-morpholinopyridin-4-yl)-4-methylphenyl)-2-(trifluoromethyl)isonicotinamide] | 
19 | 1.59 nM |  | Cc1ncc(NC(=O)c2cccc(C(F)(F)F)c2)cc1-c1cnc(OC2CCS(=O)(=O)CC2)c(N2CCOCC2)c1 [Example 1034, N-(6′-((1,1-dioxidotetrahydro-2H-thiopyran-4-yl)oxy)-2-methyl-5′-morpholino-[3,3′-bipyridin]-5-yl)-3-(trifluoromethyl)benzamide] | 
20 |  | 1.2 nM | Cc1ccc(NC(=O)c2ccnc(C(C)(C)C#N)c2)cc1-c1cc(N2CCOCC2)c(OC2CCOCC2)nn1 [Example 584, 2-(2-cyanopropan-2-yl)-N-(4-methyl-3-(5-morpholino-6-((tetrahydro-2H-pyran-4-yl)oxy)pyridazin-3-yl)phenyl)isonicotinamide] | 
21 |  | 2.2 nM | Cc1ccc(NC(=O)c2ccnc(C(C)(C)F)c2)cc1-c1cc(N2CCOCC2)c(OCCO)nn1 [Example 588, 2-(2-fluoropropan-2-yl)-N-(3-(6-(2-hydroxyethoxy)-5-morpholinopyridazin-3-yl)-4-methylphenyl)isonicotinamide] | 
22 | 1.86 nM |  | Cc1ccc(NC(=O)c2cccc(S(C)(=O)=O)c2)cc1-c1cc(N2CCOCC2)nc(N2CC(C)(O)C2)c1 [Example 1074, N-(3-(2-(3-hydroxy-3-methylazetidin-1-yl)-6-morpholinopyridin-4-yl)-4-methylphenyl)-3-(methylsulfonyl)benzamide] | 
23 | 10.8 nM |  | CCC(F)(F)c1cc(C(=O)Nc2cnc(C)c(-c3cc(NCCO)nc(N4CCOCC4)c3)c2)ccn1 [Example 1058, 2-(1,1-difluoropropyl)-N-(2′-((2-hydroxyethyl)amino)-2-methyl-6′-morpholino-[3,4′-bipyridin]-5-yl)isonicotinamide] | 
